# Reference: patent publication US5219741A, “Method of making L-proline using an N-acyl-L-protine acylase” (priority 1990, dated 1993)
# Entries after “also recorded” stand apart in the source; their conditions may differ. Where two headings read alike, the source gives them in different places.
# Tests used:
# N-acyl-L-proline acylase [1] = type: biochemical, Comamonas testosteroni DSM 5416; details: for Activity (%): no agent = 100
# Protocol: (§1) The enzymatic reaction was interrupted by pipetting 50 μl of the enzyme sample into 1.25 ml 100% acetic acid. Subsequently, 0.45 ml 0.1M tris-HCl buffer pH 7.0 and 1.25 ml ninhydrin reagent (3 g ninhydrin dissolved by heating in a mixture of 60 ml 100% acetic acid and 40 ml 6M phosphoric acid) were added. The ninhydrin reagent was freshly prepared daily. The test tubes were loosely closed with screw-on caps, incubated 30 minutes at 100° C. and subsequently cooled down in an ice bath.
# (§2) The L-proline, liberated by the enzymatic hydrolysis, forms a red dye with ninhydrin at 100° C. The absorption of the red dye was measured in a spectrophotometer at 480 nm relative to a control batch without crude extract (=substrate blank). The concentration of the L-proline produced was determined using a straight calibration line with L-proline in a range of 5 to 100 nmoles per 50 μl specimen. The enzyme activity was indicated in international units; thus, one unit (U) corresponded to an amount of 1 μmole L-proline produced per minute.
# The influence of various chemical agents as well as metal cations and anions on the reaction speed of the hydrolytic splitting of N-acetyl-L-proline was determined at 30° C. in a reaction batch with the following composition: […]
# The enzyme was pre-incubated for 10 minutes at 30° C. with the compound before the addition of substrate to start the reaction.
# The enzyme was pre-incubated for 10 minutes at 30° C. with the agent before the substrate was added to start the reaction.
# The enzyme was pre-incubated 10 minutes at 30° C. with the agent before the substrate was added to start the reaction. The concentration of the anions was 10 mM in each instance.
# [2] = test system: 1,10-phenanthroline-inactivated acylase (apoenzyme); assay: Influence of cations on the 1,10-phenanthroline-inactivated acylase; type: biochemical, Comamonas testosteroni DSM 5416
# Protocol: FPLC/Mono Q purified enzyme was incubated for 24 hours at 4° C. in the presence of 1 mM 1,10-phenanthroline. Subsequently, enzyme and the chelating agent 1,10-phenanthroline were separated by gel filtration via Sephadex G-25M (PD-10, firm Pharmacia/LKB, Uppsala, Sweden). The enzyme-containing fractions were combined and the activity determined without and in the presence of various cations (1 mM).
# [3] = test system: Comamonas testosteroni DSM 5416; assay: Growth of the strain in culture medium (OD600); type: cell-based
# Protocol: Strains which appeared uniform according to the colony morphology and the microscopic image were then cultivated in 100 ml liquid medium (500 ml Erlenmeyer flask with top and 4 lateral baffles) at 30° C. on a rotary agitator machine at 200 rpms. The culture medium had the following composition: […]
# (§3) The carbon source of the culture medium with a concentration of 4 g/l was varied and the influence on growth and acylase formation determined.
# (§4) The concentration of N-acetyl-L-proline was varied in a range of 1 g/l-5 g/l in steps of 1 g/l in the culture medium as described in Example 1.
# (§5) The concentration of (NH4)2 SO4 was varied in a range of 1 g/l-5 g/l in steps of 1 g/l in the culture medium as described in Example 1.
# (§6) The concentration of yeast extract was varied in a range of 1 g/l-5 g/l in steps of 1 g/l in the culture medium as described in Example 1.
# (§7) The N-acetyl-L-proline concentration was reduced to 0.2 to 1.0 g/l in the culture medium as described in Example 1 and 4 g/l Na acetate were additionally added.
# (§8) The method described above under f) was followed. However, the inductor, N-acetyl-L-proline, was not added to the nutrient medium until the late exponential growth phase after an incubation time of 12 hours.
# (§9) The method described above under f) was followed. In addition to N-acetyl-L-proline, various N-acetyl- and N-chloroacetyl amino acids were added to the nutrient medium in a concentration of 1 g/l.
# [4] = test system: N-acyl-L-proline acylase formation in Comamonas testosteroni DSM 5416; assay: Acylase formation: specific activity of N-acyl-L-proline acylase in crude extract; type: cell-based
# Protocol: After 24 to 48 hours, the cell-containing nutrient medium was centrifuged (15 min., 4,500 g in a cooling centrifuge), the cells were washed twice with 0.9% (w/v) NaCl solution and resuspended in 10 ml 0.1M tris-HCl buffer, pH 7.0.
# The microorganisms of this suspension were macerated by ultrasound treatment (Sonifier-Cell Disrupter B-30 of the firm Branson Sonic Power Co., Danbury, Conn., USA) (2 minutes pulsating, corresponding to 1 minute of pure ultrasonic radiation. The cell fragments and non-macerated cells were centrifuged in a cooled centrifuge 30 minutes at 40,000 g and 5° C. The clear supernatant (=crude extract) was used in an enzyme test.
# The reaction was started by adding crude extract and the reaction batches customarily incubated for 10 minutes at 30° C. The incubation time and the amount of crude extract were selected so that the linearity range of the enzymatic reaction and of the subsequent proline detection were not exceeded.
# as §1, §2
# The protein determination was carried out with a protein-determination kit of the firm Pierce Chemical Co., Rockford, Ill., USA, according to Bradford, Anal. Biochem. 72, pp. 248-254 (1976).
# as §3, §4, §5, §6, §7, §8, §9
# N-acyl-L-proline acylase [5] = assay: Substrate specificity: hydrolysis of N-acyl amino acids and proline derivatives; type: biochemical, Comamonas testosteroni DSM 5416; details: 20 mM substrate 1.0 ml in 2.0 ml batch, 30° C., pH 7.0; N-acetyl-L-proline = 100%; amino-acid analyzer
# Protocol: The activity of acylase was determined with various N-acetyl-L-amino acids and N-chloroacetyl-L-amino acids in a reaction batch with the following composition:
# The reaction temperature was 30° C. and the incubation time 15 minutes to 24 hours. 0.2 ml samples of the reaction batch in each instance were mixed at different times with 0.2 ml 10% (w/v) trichloroacetic acid and the denatured protein centrifuged off for 10 minutes at 11,000 rpms in a table centrifuge. The supernatant was diluted with a 0.1M Na citrate buffer pH 2.2 with 25% (v/v) 2.2-thiodiethanol and 0.1% (v/v) phenol 1:5 and 1:50 respectively. The amino acids released were quantitatively detected by an amino-acid analyzer LC 5001 of the firm Biotronic, Maintal, Federal Republic of Germany. In Table 16, the substrates marked with * and the corresponding products were quantified by means of HPLC.
# The activity of the acylase was determined with various proline derivatives as under a).
# [6] = (NH4)2 SO4 1 g/l in culture medium, 23 hours
# [7] = (NH4)2 SO4 2 g/l in culture medium, 23 hours
# [8] = (NH4)2 SO4 3 g/l in culture medium, 23 hours
# [9] = (NH4)2 SO4 4 g/l in culture medium, 23 hours
# [10] = (NH4)2 SO4 5 g/l in culture medium, 23 hours
# [11] = carbon source 4 g/l in culture medium
# [12] = metal cation salt 1 mM, native enzyme
# [13] = metal cation salt 10 mM, native enzyme
# [14] = inactivated enzyme after gel filtration + cation 1 mM, native enzyme = 100, no agent = 21
# [15] = inductor 1 g/l + 4 g/l Na acetate, 24 hours
structure (smiles),measurement,setting,value
"c1cnc2c(c1)ccc1cccnc12 [1,10 phenanthroline, 1,10-phenanthroline]",Activity (%),"N-acyl-L-proline acylase [1]; chemical agent 1 mM, 10 min pre-incubation at 30° C.",27%
same,Activity (%),"N-acyl-L-proline acylase [1]; chemical agent 10 mM, 10 min pre-incubation at 30° C.",1%
same,Influence on the acylase activity (in words),N-acyl-L-proline acylase [1]; native enzyme,inhibiting action; also recorded: significantly inhibit
same,Activity (%),"[2]; enzyme incubated 24 hours at 4° C. with 1 mM 1,10-phenanthroline, before gel filtration, native enzyme = 100",2%
N.N.O=S(=O)(O)O [(NH4)2 SO4],Growth (OD600),[3]; [6],5.24 OD600
same,Growth (OD600),[3]; [7],5.67 OD600
same,Growth (OD600),[3]; [8],5.47 OD600
same,Growth (OD600),[3]; [9],5.44 OD600
same,Growth (OD600),[3]; [10],5.47 OD600
same,Optimum concentration in the culture medium for acylase formation,[4],2 g/L
same,Spec. activity (U/mg),[4]; [6],1.71 U/mg
same,Spec. activity (U/mg),[4]; [7],1.91 U/mg
same,Spec. activity (U/mg),[4]; [8],1.53 U/mg
same,Spec. activity (U/mg),[4]; [9],1.59 U/mg
same,Spec. activity (U/mg),[4]; [10],1.32 U/mg
CC(=O)O [Acetate],Growth (OD600),[3]; [11],2.3 OD600
same,Acylase formation / induction (in words),[4],not repressed
same,Spec. activity (U/mg),[4]; [11],< 0.01 U/mg
[Ba+2].[Cl-].[Cl-] [BaCl2],Activity (%),N-acyl-L-proline acylase [1]; [12],100%
same,Activity (%),N-acyl-L-proline acylase [1]; [13],99%
same,Activity (%),[2]; [14],18%
CCCC(=O)O [Butyrate],Growth (OD600),[3]; [11],1.8 OD600
same,Spec. activity (U/mg),[4]; [11],< 0.01 U/mg
[Ca+2].[Cl-].[Cl-] [CaCl2],Activity (%),N-acyl-L-proline acylase [1]; [12],100%
same,Activity (%),N-acyl-L-proline acylase [1]; [13],91%
same,Activity (%),[2]; [14],17%
[Cl][Cd][Cl] [CdCl2],Activity (%),N-acyl-L-proline acylase [1]; [12],89%
same,Activity (%),N-acyl-L-proline acylase [1]; [13],65%
same,Influence on the acylase activity (in words),N-acyl-L-proline acylase [1]; native enzyme,inhibiting action
same,Activity (%),[2]; [14],20%
CC(C)C[C@H](NC(=O)CCl)C(=O)O [ClAc--L--Leu],Rel. activity (%),N-acyl-L-proline acylase [5],1.9%
same,Growth (OD600),[3]; [15],2.65 OD600
same,Spec. activity (U/mg),[4]; [15],< 0.01 U/mg
O=C(CCl)N[C@@H](Cc1ccccc1)C(=O)O [ClAc--L--Phe],Rel. activity (%),N-acyl-L-proline acylase [5],1.0%
same,Growth (OD600),[3]; [15],2.89 OD600
same,Spec. activity (U/mg),[4]; [15],< 0.01 U/mg
O=C(CCl)N[C@@H](Cc1ccc(O)cc1)C(=O)O [ClAc--L--Tyr],Rel. activity (%),N-acyl-L-proline acylase [5],1.0%
same,Growth (OD600),[3]; [15],2.76 OD600
same,Spec. activity (U/mg),[4]; [15],< 0.01 U/mg
[Cl-].[Cl-].[Co+2] [CoCl2],Activity (%),N-acyl-L-proline acylase [1]; [12],103%
same,Activity (%),N-acyl-L-proline acylase [1]; [13],92%
same,Influence on the apoenzyme (in words),"[2]; 1,10-phenanthroline-inactivated acylase",activating action
same,Activity (%),[2]; [14],80%
OCC(O)CO [Glycerol],Growth (OD600),[3]; [11],1.1 OD600
same,Spec. activity (U/mg),[4]; [11],< 0.01 U/mg
N[C@@H](CC(=O)O)C(=O)O [L-aspartate],Growth (OD600),[3]; [11],2.0 OD600
same,Spec. activity (U/mg),[4]; [11],< 0.01 U/mg
CC(C)C[C@H](N)C(=O)O [L-leucine],Growth (OD600),[3]; [11],2.6 OD600
same,Spec. activity (U/mg),[4]; [11],< 0.01 U/mg
O=C(O)[C@@H]1CCCN1 [L-proline],Growth (OD600),[3]; [11],3.9 OD600
same,Spec. activity (U/mg),[4]; [11],< 0.01 U/mg
CC(O)C(=O)O (stereo not drawn) [Lactate],Growth (OD600),[3]; [11],3.0 OD600
same,Spec. activity (U/mg),[4]; [11],< 0.01 U/mg
N=C(N)NCCC[C@H](N)C(=O)O [Larginine],Growth (OD600),[3]; [11],No growth
